In the supplement of paper PMC10307832:

Columns and labels:
Experiment in all cases: relative viability (nuclei count vs DMSO), 5 days (fraction); higher = more cells survive
AZD1208 + Tozasertib = compound: N[C@@H]1CCCN(c2c(/C=C3\SC(=O)NC3=O)cccc2-c2ccccc2)C1 [AZD1208] + Cc1cc(Nc2cc(N3CCN(C)CC3)nc(Sc3ccc(NC(=O)C4CC4)cc3)n2)n[nH]1 [Tozasertib] (partner 0.1 µM)
Outline: (§1)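 Each reported value is a median over duplicate plates. It expresses relative viability: treated-well nuclei count divided by vehicle-well nuclei count. Lung cancer cell lines in 1536-well plates were dosed by pin tool a day after seeding, alone with one drug or with a fixed anchor-drug dose plus five library-drug doses (not always all listed) in √10 steps, and nuclei were counted after 5 days.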

XMD14-99 + Pemetrexed = compound: CN1CCN(CC1)C2=CC(=C(C=C2)NC3=NC(=C(S3)C(=O)C4=C(C=CC=C4Cl)Cl)N)OC [XMD14-99] + Nc1nc2[nH]cc(CCc3ccc(C(=O)N[C@@H](CCC(=O)O)C(=O)O)cc3)c2c(=O)[nH]1 [Pemetrexed] (partner 0.2 µM)
Outline: as §1

XMD14-99 + Luminespib = compound: CN1CCN(CC1)C2=CC(=C(C=C2)NC3=NC(=C(S3)C(=O)C4=C(C=CC=C4Cl)Cl)N)OC [XMD14-99] + CCNC(=O)c1noc(-c2cc(C(C)C)c(O)cc2O)c1-c1ccc(CN2CCOCC2)cc1 [Luminespib] (partner 0.01 µM)
Outline: as §1

XMD14-99 + Bortezomib = compound: CN1CCN(CC1)C2=CC(=C(C=C2)NC3=NC(=C(S3)C(=O)C4=C(C=CC=C4Cl)Cl)N)OC [XMD14-99] + CC(C)C[C@H](NC(=O)[C@H](Cc1ccccc1)NC(=O)c1cnccn1)B(O)O [Bortezomib] (partner 0.002 µM)
Outline: as §1

## UMC-11
AZD1208 + Tozasertib; first compound 0.08 µM
  relative viability: 0.204
AZD1208 + Tozasertib; first compound 0.253 µM
  relative viability: 0.205
AZD1208 + Tozasertib; first compound 0.8 µM
  relative viability: 0.211
AZD1208 + Tozasertib; first compound 2.53 µM
  relative viability: 0.207
AZD1208 + Tozasertib; first compound 8 µM
  relative viability: 0.21
XMD14-99 + Pemetrexed; first compound 0.08 µM
  relative viability: 0.752
XMD14-99 + Pemetrexed; first compound 0.8 µM
  relative viability: 0.769
XMD14-99 + Pemetrexed; first compound 2.53 µM
  relative viability: 0.688
XMD14-99 + Pemetrexed; first compound 8 µM
  relative viability: 0.69
XMD14-99 + Luminespib; first compound 0.08 µM
  relative viability: 0.98
XMD14-99 + Luminespib; first compound 0.8 µM
  relative viability: 1.05
XMD14-99 + Luminespib; first compound 2.53 µM
  relative viability: 0.98
XMD14-99 + Luminespib; first compound 8 µM
  relative viability: 0.828
XMD14-99 + Bortezomib; first compound 0.08 µM
  relative viability: 0.701
XMD14-99 + Bortezomib; first compound 0.8 µM
  relative viability: 0.775
XMD14-99 + Bortezomib; first compound 2.53 µM
  relative viability: 0.673
XMD14-99 + Bortezomib; first compound 8 µM
  relative viability: 0.526
